Measurements from patent publication US10906940B2, “Antimicrobial peptides, pharmaceutical compositions, and methods of use thereof” (priority 2014, dated 2021).
≈ marks a conversion by molar mass, not a printed value. Where a SMILES comes first, the peptide text is derived from it. Bridges are numbered along the chain shown (N, C = ends). [ ]: non-standard residue; d: D form. The star is where a group is joined. Tridecanoyl = CCCCCCCCCCCCC(=O)*; dOrn = NCCC[C@@H](N)C(=O)O

What was measured:
[1] = system: E. cloacae CVM 15101 (P99); format: cell-based, Enterobacter cloacae
Text: (§1) The same MIC assay as in Example 6 was used to determine the antimicrobial susceptibility of Compound A, L-form (FIG. 15), and several variants. One variant was Compound A, D-form, with D-Lysine at position 7. Compound B is a variant in the fatty acid chain, with a fatty acid chain composition of C15H29O, and having D-Lys at position 7. Compound C is a variant in the fatty acid chain with a fatty acid chain composition of C11H21O, and having D-Lys at position 7. Variant D is a sequence variant with Phe at position 6 of the cyclic peptide, and having D-Lys at position 7. All variants were chemically synthesized.

[2] = system: E. coli CVM 40129 (oxa-5); format: cell-based, Escherichia coli
Text: as §1

[3] = system: E. coli CVM 40131 (ctx-m-2); format: cell-based, Escherichia coli
Text: as §1

[4] = system: E. coli CVM 40134 (ctx-m-15); format: cell-based, Escherichia coli
Text: as §1

E. coli CVM 15104 (shv3) = format: cell-based, Escherichia coli
Text: as §1

[5] = system: E. coli CVM 40127 (oxa-2); format: cell-based, Escherichia coli
Text: as §1

[6] = system: E. coli CVM 40128 (oxa-7); format: cell-based, Escherichia coli
Text: as §1

E. coli CVM40148 (veb-1) = format: cell-based, Escherichia coli
Text: as §1

E. coli CVM40146 (vim-1) = format: cell-based, Escherichia coli
Text: as §1

[7] = system: E. coli CVM 40147 (vim-2); format: cell-based, Escherichia coli
Text: as §1

[8] = system: E. coli CVM 40137 (DHA-1); format: cell-based, Escherichia coli
Text: as §1

[9] = system: E. coli CVM 40143 (act-1); format: cell-based, Escherichia coli
Text: as §1

[10] = system: E. coli CVM 40138 (LCR-1); format: cell-based, Escherichia coli
Text: as §1

[11] = system: E. coli CVM 40141 (imp-1); format: cell-based, Escherichia coli
Text: as §1

E. coli CVM 15100 (mir1) = format: cell-based, Escherichia coli
Text: as §1

[12] = system: E. coli CVM 40133 (ctx-m-14); format: cell-based, Escherichia coli
Text: as §1

[13] = system: E. coli CVM 40132 (ctx-m-9); format: cell-based, Escherichia coli
Text: as §1

[14] = system: E. coli CVM 35778 (ctx-m-2); format: cell-based, Escherichia coli
Text: as §1

[15] = system: E. coli CVM 40139 (fox-1); format: cell-based, Escherichia coli
Text: as §1

[16] = system: E. coli CVM 40126 (oxa-1); format: cell-based, Escherichia coli
Text: as §1

[17] = system: E. coli CVM 40136 (tem 52b); format: cell-based, Escherichia coli
Text: as §1

[18] = system: E. coli CVM 40130 (oxa-9); format: cell-based, Escherichia coli
Text: as §1

E. coli CVM 15103 (tem2) = format: cell-based, Escherichia coli
Text: as §1

[19] = system: K. pneumonia CVM 40142 (ges-1); format: cell-based, Klebsiella pneumoniae
Text: as §1

[20] = system: K. pneumoniae CVM 9246 (shv18, oxa2); format: cell-based, Klebsiella pneumoniae
Text: as §1

[21] = system: K. pneumonia CVM 15105 (shv5); format: cell-based, Klebsiella pneumoniae
Text: as §1

[22] = system: K. pneumoniae CVM 15102 (shv5); format: cell-based, Klebsiella pneumoniae
Text: as §1

[23] = system: Salmonella CVM 40118 (oxa-1); format: cell-based
Text: as §1

[24] = system: Serratia marcescens SBJ-9047; format: cell-based; conditions: SBJ-9047
Text: as §1

[25] = system: Serratia marcescens SAMN04022954; format: cell-based; conditions: SAMN04022954
Text: as §1

[26] = system: Serratia marcescens SBJ-8283; format: cell-based; conditions: SBJ-8283
Text: as §1

[27] = system: Salmonella CVM 40119 (tem 12); format: cell-based
Text: as §1

[28] = system: Serratia marcescens SAMN 04276915; format: cell-based; conditions: SAMN 04276915
Text: as §1

E. faecium ATCC 700221 = test: microbe, parasite or virus in culture; format: cell-based; conditions: ATCC 700221
Text: as §1

E. faecium ATCC 2320 = test: microbe, parasite or virus in culture; format: cell-based; conditions: ATCC 2320
Text: as §1

E. faecium BAA-2318 = test: microbe, parasite or virus in culture; format: cell-based; conditions: BAA-2318
Text: as §1

E. faecalis ATCC 51575 = test: microbe, parasite or virus in culture; format: cell-based, Enterococcus faecalis; conditions: ATCC 51575
Text: as §1

E. faecalis BAA-2365 = test: microbe, parasite or virus in culture; format: cell-based, Enterococcus faecalis; conditions: BAA-2365
Text: as §1

[29] = system: P. aeruginosa CVM 40144 (PER-1); format: cell-based, Pseudomonas aeruginosa
Text: as §1

SMILES | MIC [1] | MIC [2] | MIC [3] | MIC [4] | MIC (E. coli CVM 15104 (shv3)) | MIC [5] | MIC [6] | MIC (E. coli CVM40148 (veb-1)) | MIC (E. coli CVM40146 (vim-1)) | MIC [7] | MIC [8] | MIC [9] | MIC [10] | MIC [11] | MIC (E. coli CVM 15100 (mir1)) | MIC [12] | MIC [13] | MIC [14] | MIC [15] | MIC [16] | other results
CCCCCCCCCCCCC(=O)N[C@H](CCCN)C(=O)N[C@H](C(=O)N[C@@H]1C(=O)N[C@H](CCCN)C(=O)N[C@@H](CO)C(=O)N[C@@H](Cc2ccccc2)C(=O)N[C@H](CCCCN)C(=O)N[C@H](CO)C(=O)N[C@@H]([C@@H](C)CC)C(=O)N2CCC[C@H]2C(=O)N[C@@H]([C@@H](C)CC)C(=O)N2CCC[C@H]2C(=O)N[C@@H]([C@@H](C)CC)C(=O)O[C@@H]1C)C(C)C [Variant D] (Tridecanoyl-[dOrn]VT[dOrn]SF[dK][dS]IPIPI; ester 3-C; N-terminus assumed) | 8 µg/mL (≈ 4.97 µM) | 8 µg/mL (≈ 4.97 µM) | 8 µg/mL (≈ 4.97 µM) | 8 µg/mL (≈ 4.97 µM) | 16 µg/mL (≈ 9.95 µM) | 8 µg/mL (≈ 4.97 µM) | 8 µg/mL (≈ 4.97 µM) | 8 µg/mL (≈ 4.97 µM) | 8 µg/mL (≈ 4.97 µM) | 16 µg/mL (≈ 9.95 µM) | 8 µg/mL (≈ 4.97 µM) | 16 µg/mL (≈ 9.95 µM) | 8 µg/mL (≈ 4.97 µM) | 16 µg/mL (≈ 9.95 µM) | 8 µg/mL (≈ 4.97 µM) | 8 µg/mL (≈ 4.97 µM) | 8 µg/mL (≈ 4.97 µM) | 16 µg/mL (≈ 9.95 µM) | 8 µg/mL (≈ 4.97 µM) | 8 µg/mL (≈ 4.97 µM) | MIC [17]: 16 µg/mL (≈ 9.95 µM); MIC [18]: 8 µg/mL (≈ 4.97 µM); MIC (E. coli CVM 15103 (tem2)): 8 µg/mL (≈ 4.97 µM); MIC [19]: 8 µg/mL (≈ 4.97 µM); MIC [20]: 8 µg/mL (≈ 4.97 µM); MIC [21]: 8 µg/mL (≈ 4.97 µM); MIC [22]: 8 µg/mL (≈ 4.97 µM); MIC [23]: 8 µg/mL (≈ 4.97 µM); MIC [24]: ≥128 µg/mL; MIC [25]: ≥128 µg/mL; MIC [26]: 32 µg/mL (≈ 19.9 µM); MIC [27]: 8 µg/mL (≈ 4.97 µM); MIC [28]: ≥128 µg/mL; MIC (E. faecium ATCC 700221): 8 µg/mL (≈ 4.97 µM); MIC (E. faecium ATCC 2320): 8 µg/mL (≈ 4.97 µM); MIC (E. faecium BAA-2318): 8 µg/mL (≈ 4.97 µM); MIC (E. faecalis ATCC 51575): 8 µg/mL (≈ 4.97 µM); MIC (E. faecalis BAA-2365): 8 µg/mL (≈ 4.97 µM); MIC [29]: 16 µg/mL (≈ 9.95 µM)
CCCCCCCCCCCCC(=O)N[C@H](CCCN)C(=O)N[C@H](C(=O)N[C@@H]1C(=O)N[C@H](CCCN)C(=O)N[C@@H](CO)C(=O)N[C@@H](Cc2ccc(O)cc2)C(=O)N[C@@H](CCCCN)C(=O)N[C@H](CO)C(=O)N[C@@H]([C@@H](C)CC)C(=O)N2CCC[C@H]2C(=O)N[C@@H]([C@@H](C)CC)C(=O)N2CCC[C@H]2C(=O)N[C@@H]([C@@H](C)CC)C(=O)O[C@@H]1C)C(C)C [Compound A L-form] (Tridecanoyl-[dOrn]VT[dOrn]SYK[dS]IPIPI; ester 3-C) | 8 µg/mL (≈ 4.93 µM) | 4 µg/mL (≈ 2.46 µM) | 4 µg/mL (≈ 2.46 µM) | 8 µg/mL (≈ 4.93 µM) | 8 µg/mL (≈ 4.93 µM) | 8 µg/mL (≈ 4.93 µM) | 8 µg/mL (≈ 4.93 µM) | 8 µg/mL (≈ 4.93 µM) | 8 µg/mL (≈ 4.93 µM) | 16 µg/mL (≈ 9.85 µM) | 8 µg/mL (≈ 4.93 µM) | 8 µg/mL (≈ 4.93 µM) | 8 µg/mL (≈ 4.93 µM) | 32 µg/mL (≈ 19.7 µM) | 8 µg/mL (≈ 4.93 µM) | 8 µg/mL (≈ 4.93 µM) | 8 µg/mL (≈ 4.93 µM) | 8 µg/mL (≈ 4.93 µM) | 8 µg/mL (≈ 4.93 µM) | 4 µg/mL (≈ 2.46 µM) | MIC [17]: 8 µg/mL (≈ 4.93 µM); MIC [18]: 8 µg/mL (≈ 4.93 µM); MIC (E. coli CVM 15103 (tem2)): 8 µg/mL (≈ 4.93 µM); MIC [19]: 8 µg/mL (≈ 4.93 µM); MIC [20]: 8 µg/mL (≈ 4.93 µM); MIC [21]: 8 µg/mL (≈ 4.93 µM); MIC [22]: 8 µg/mL (≈ 4.93 µM); MIC [23]: 4 µg/mL (≈ 2.46 µM); MIC [25]: ≥128 µg/mL; MIC [27]: 8 µg/mL (≈ 4.93 µM); MIC [28]: ≥128 µg/mL; MIC (E. faecium ATCC 700221): 4 µg/mL (≈ 2.46 µM); MIC (E. faecium ATCC 2320): 4 µg/mL (≈ 2.46 µM); MIC (E. faecium BAA-2318): 4 µg/mL (≈ 2.46 µM); MIC (E. faecalis ATCC 51575): 8 µg/mL (≈ 4.93 µM); MIC (E. faecalis BAA-2365): 8 µg/mL (≈ 4.93 µM); MIC [29]: 32 µg/mL (≈ 19.7 µM)
CCCCCCCCCCCCC(=O)N[C@H](CCCN)C(=O)N[C@H](C(=O)N[C@@H]1C(=O)N[C@H](CCCN)C(=O)N[C@@H](CO)C(=O)N[C@@H](Cc2ccc(O)cc2)C(=O)N[C@H](CCCCN)C(=O)N[C@H](CO)C(=O)N[C@@H]([C@@H](C)CC)C(=O)N2CCC[C@H]2C(=O)N[C@@H]([C@@H](C)CC)C(=O)N2CCC[C@H]2C(=O)N[C@@H]([C@@H](C)CC)C(=O)O[C@@H]1C)C(C)C [Compound A D-form] (Tridecanoyl-[dOrn]VT[dOrn]SY[dK][dS]IPIPI; ester 3-C) | 8 µg/mL (≈ 4.93 µM) | 8 µg/mL (≈ 4.93 µM) | 8 µg/mL (≈ 4.93 µM) | 8 µg/mL (≈ 4.93 µM) | 8 µg/mL (≈ 4.93 µM) | 8 µg/mL (≈ 4.93 µM) | 8 µg/mL (≈ 4.93 µM) | 8 µg/mL (≈ 4.93 µM) | 8 µg/mL (≈ 4.93 µM) | 16 µg/mL (≈ 9.85 µM) | 8 µg/mL (≈ 4.93 µM) | 8 µg/mL (≈ 4.93 µM) | 8 µg/mL (≈ 4.93 µM) | 16 µg/mL (≈ 9.85 µM) | 8 µg/mL (≈ 4.93 µM) | 16 µg/mL (≈ 9.85 µM) | 8 µg/mL (≈ 4.93 µM) | 8 µg/mL (≈ 4.93 µM) | 8 µg/mL (≈ 4.93 µM) | 8 µg/mL (≈ 4.93 µM) | MIC [17]: 16 µg/mL (≈ 9.85 µM); MIC [18]: 8 µg/mL (≈ 4.93 µM); MIC (E. coli CVM 15103 (tem2)): 8 µg/mL (≈ 4.93 µM); MIC [19]: 8 µg/mL (≈ 4.93 µM); MIC [20]: 8 µg/mL (≈ 4.93 µM); MIC [21]: 8 µg/mL (≈ 4.93 µM); MIC [22]: 8 µg/mL (≈ 4.93 µM); MIC [23]: 4 µg/mL (≈ 2.46 µM); MIC [24]: 32 µg/mL (≈ 19.7 µM); MIC [25]: 32 µg/mL (≈ 19.7 µM); MIC [26]: 16 µg/mL (≈ 9.85 µM); MIC [27]: 16 µg/mL (≈ 9.85 µM); MIC [28]: 64 µg/mL (≈ 39.4 µM); MIC (E. faecium ATCC 700221): 8 µg/mL (≈ 4.93 µM); MIC (E. faecium ATCC 2320): 8 µg/mL (≈ 4.93 µM); MIC (E. faecium BAA-2318): 4 µg/mL (≈ 2.46 µM); MIC (E. faecalis ATCC 51575): 8 µg/mL (≈ 4.93 µM); MIC (E. faecalis BAA-2365): 8 µg/mL (≈ 4.93 µM); MIC [29]: 16 µg/mL (≈ 9.85 µM)
